Common to all, as to assay type: in vivo
Test [1] deals with STZ-induced diabetic mice. The test can be described thus: Water intake of the diabetic mice. The procedure: (§1) The male FBV mice of 5 weeks old, commercially available from BioLASCO Co., Ilan, Taiwan, were acclimatized for 1 week, prior to administration of streptozotocin (STZ) at 40 mg/kg for 3 consecutive days. STZ was formulated with an aqueous solution of sodium citrate (pH 4.5, 73.5 mg/5 mL) on ice, and then 100 μL of the formulation was dosed by intraperitoneal injection. From day 2 in the 3 consecutive days, the mice were dosed with 5% (w/v) glucose water for 6 consecutive days. After allowing the mice to rest for 10 days, blood glucose levels were measured. After administration of STZ for 1 week, about 5 μL of blood was collected from each of the mice at the tail vein, and was assayed for blood glucose by a blood glucose monitor and chip (FORA, California, U.S.A.). After 1 week, blood glucose was detected once more, and whether blood glucose was smooth or not was evaluated prior to grouping. The values of blood glucose in all of the mice induced to suffer from diabetes were brought to fall within about 300±50 mg/dL.
(§2) An appropriate amount of the Taiwan Green Propolis alcohol extract was dissolved with 3 ml 95% alcohol and then uniformly mixed with 80 μL Tween 80 as a cosolvent; after concentrating under reduced pressure for removal of alcohol, it was dispersed into 16 ml water to give a liquid mixture of the Taiwan Green Propolis extract. This mixture was fed by 200 μL gavage into the diabetic mice designated as the Taiwan Green Propolis extract group.
(§3) An appropriate amount of propolins and its relevant derivatives, such as PPA, PPB, PPC, PPD, PPE, PPF, PPG, PPH, PPI or PPJ, was dissolved with 3 ml 95% alcohol and then uniformly mixed with 80 μL Tween 80; after concentrating under reduced pressure for removal of alcohol, it was uniformly dispersed into 16 ml water to give a liquid mixture of propolins. This mixture was fed by 200 μL gavage into the diabetic mice designated as the propolins and its relevant derivative group.
(§4) Sitagliptin (trade name: Januvia), commercially available from American Merck Co., was used as the DPP4 inhibitor. An appropriate amount of sitagliptin was dissolved in water to provide a final concentration allowing administration of the mice at a dose of 370 mg/kg. In the following example, Januvia was representative of the DPP4 inhibitors and acted as a positive control group for reference.
(§5) Tween 80 (80 μL) was mixed into 16 ml water to give a placebo, which was fed by 200 μL gavage into the STZ-induced diabetic mice or normal mice (i.e., the mice without induction for diabetes). Oral gavage was carried out once at a fixed time each day, and weight, feedstuff intake and water intake were measured weekly until tests were finished at 12-13 weeks.

The subject of test [2] is STZ-induced diabetic mice. Nature of the test: Feedstuff intake of the diabetic mice. Particulars: for feedstuff intake: propolins study. The procedure:
as §1, §2, §3, §4, §5

The test system of test [3] is STZ-induced diabetic mice. The test can be described thus: Oral glucose tolerance test (OGTT). Further details: reduction of AUC compared with the STZ group / extent of reduction of AUC compared with the STZ group: concentration or dose not given beside the values. The procedure: as §1
After administration of the testing substance to the animals for 12 weeks, the OGTT test was performed for evaluation of secretion and effects of insulin. All of the mice in the test were administered with the testing substance and then fasted for 4 hours prior to blood sampling at the first point called point 0. Afterwards, the mice were fed by oral gavage with 200 μL glucose in water, equivalent to a dose of 1.0 g/kg. After administration, blood was collected for an assay of blood glucose at 15, 30, 60, 120 and 180 minutes, respectively. Therefore, a total of 6 points, including points at 0, 15, 30, 60, 120 and 180 minutes, were obtained. About 5 μL of blood was collected from each of the mice at the tail vein and was then assayed for blood glucose by the blood glucose monitor and chip (FORA, California, U.S.A.). The blood glucose values at the Y-axis were plotted against the time points at the X-axis. Each group was calculated for an area under curve for comparison. The efficacy in regulation of blood glucose was evaluated by the area showing a relationship between the testing substance and secretion and effects of insulin.

Test [4] deals with STZ-induced diabetic mice. The test can be described thus: Analysis of glycosylated hemoglobin HbA1c. Particulars: TPE study, TPE 36 mg/kg, DPP4I 370 mg/kg. The protocol: STZ was formulated with an aqueous solution of sodium citrate (pH 4.5, 73.5 mg/5 mL) on ice, and then 100 μL of the formulation was dosed by intraperitoneal injection. […] The glycosylated hemoglobin was used for evaluation of the efficacy of the testing substance in the regulation of blood glucose. […] (New Taipei City, Taiwan) for analysis. The analysis may confer an average and standard deviation to each group of the mice. In the event the presence of the blood glucose modulation efficacy for the testing substance, this value would be lower; and in the event the absence of the blood glucose modulation efficacy for the testing substance, this value would be higher.

Test [5] has as its system STZ-induced diabetic mice. Nature of the test: Blood glucose in the STZ-induced diabetic mice. Particulars: propolins study; after administration for 8 weeks by gavage daily; PPC 9.0, PPD 6.75, PPF 4.5, PPG 4.5, Januvia 370 mg/kg/mouse. The protocol: as §1, with “mg/dL. […]” for “mg/dL.”
as §3, §4, §5

The results in this text go back to US9457007B2, “Prenylflavanone compounds for modulating diabetes” (NATUREWISE BIOTECH & MEDICALS CORPORATION, priority 2013, dated 2016).

In the case of `N[C@@H](CC(=O)N1CCn2c(nnc2C(F)(F)F)C1)Cc1cc(F)c(F)cc1F` [DPP4I, Sitagliptin, reference compound], the water intake amounted to 5.4 mL/day/mouse in test [1] (TPE study, after 8 weeks, TPE 36 mg/kg/day, Januvia 370 mg/kg); 3.8 mL/day/mouse in test [1] (TPE study, after 13 weeks, TPE 36 mg/kg/day, Januvia 370 mg/kg); 7.0 mL/day/mouse in test [1] (TPE study, first week, TPE 36 mg/kg/day, Januvia 370 mg/kg); 8.0 mL/mouse in test [1] (propolins study, at 1 week); 12.0 mL/mouse in test [1] (propolins study, at 6 weeks); 12.5 mL/mouse in test [1] (propolins study, at 8 weeks). The “effect on food intake” value in test [2] (TPE study, 13 weeks, TPE 36 mg/kg/day, Januvia 370 mg/kg) is “the test results were the same”. The feedstuff intake in test [2] (at 1 week) stood at 5.5 g/mouse; in test [2] (at 6 weeks), 6.5 g/mouse; in test [2] (at 8 weeks), 6.4 g/mouse. For the same molecule, the “blood glucose value in glucose tolerance test” value was “about 260 mg/dL” in test [3] (TPE study, 0 point, glucose 1.0 g/kg oral, TPE 36 mg/kg, Januvia 370 mg/kg); “about 420 mg/dL” in test [3] (TPE study, 30-minute time point after glucose in water); 240 mg/dL in test [3] (TPE study, 180-minute time point). Further, the “reduction of AUC compared with the STZ group” value in test [3] (TPE study, OGTT) was 66.1%. In addition, the “AUC value of blood glucose (integral area)” value in test [3] (TPE study, OGTT 0-180 min, TPE 36 mg/kg, DPP4I 370 mg/kg) was “about 5.8×10^4”. For the same molecule, the “value of blood glucose in glucose tolerance test” value is reported as “about 380 mg/dL” in test [3] (propolins study, 0 point, PPC 9.0, PPD 6.75, PPF 4.5, PPG 4.5, DPP4I 370 mg/kg/mouse); “about 450 mg/dL” in test [3] (propolins study, 30-minute time point after glucose in water); “about 450 mg/dL” in test [3] (propolins study, 120-minute time point); 400 mg/dL in test [3] (propolins study, 180-minute time point). The “AUC value for blood glucose (integral area)” value in test [3] (propolins study, OGTT) is given as “about 7.2×10^4”. Also, in test [3] (propolins study, OGTT), the “extent of reduction of AUC compared with the STZ group” value turned out to be 42.0%. Besides, the “reduction of the generation of glycosylated hemoglobin” value in test [4] (13 weeks) was found to be 55%. For the same molecule, in test [4] (administration for 13 weeks), the “value of glycosylated hemoglobin” value was “about 4.6%”. This molecule had a blood glucose in test [5] of 330 mg/dL.
